# Measured values from patent US20240368668A1, “SUBSTRATES AND BIOMARKERS OF ADAMTS7” (The Broad Institute, Inc., priority 2021, published 2024).
# Square brackets hold non-standard residues; d marks the D form. Ends that are not written are not given here. pGlu = O=C1CC[C@@H](C(=O)O)N1
# Test system: mouse ADAMTS7
# Assay: TMT10 TAILS N-terminomics, SMC1 experiment (Ad-mADAMTS7 WT vs EQ vs Luc, technical replicates, trypsin digest)
# Assay type: cell-based
# Conditions: TAILS neo-N-terminal peptide abundance; log fold change, Ad-mADAMTS7 WT over EQ
# From the text: ADAMTS7 Expression, Cell Culture and Preparation of the Secreted Proteins—Full-length mouse Adamts7 1-1857 (Uniprot Q68SA9, WT or E373Q catalytic mutant) with a carboxyl terminal 3xFLAG tag was used to generate custom adenoviruses as previously described. Adeno-CMV-Luciferase (Ad-Luc) from Vector Biolabs was used as a negative control. Human Coronary Artery Smooth Muscle Cells (HCA-SMC) were obtained from Lonza and expanded in Lonza SmGM-2 media in 15 cm tissue culture plates. Twenty-four hours before media collection, near confluent plates were transduced with 50 MOI adenovirus and switched to Lonza Basal SM media with volumes of 20 ml per 15 cm plate. Expression of the Flag tagged ADAMTS7 was confirmed from the media using western blot and detected using the anti-Flag M2-HRP antibody (Sigma, A8592). Collected media was processed by adding protease inhibitors (1 mM EDTA and 1 mM PMSF) and clarified by 500 g×5 min spin at 4 C to pellet cell debris. Cell media supernatants were then passed through a 0.22 um filter and kept chilled. Processed media was then concentrated 50-100× using 3 kDa Centricon Plus-70 filter unit, spun at 3,500 g×60 min at 4 C. Approximately 10% of the processed, concentrated media was set aside for total secretome proteolytic analysis. The remaining 90% of the processed, concentrated media was buffer exchanged into 50 mM HEPES pH 8.0, 150 mM NaCl (2×50 ml) using the 3 kDa Centricon Plus-70 filter unit and concentrated to >2 mg/ml to serve as input for the TAILS experiment. Secretome and TAILS input samples were stored at −80° C.
# For the first experiment, referred to as SMC1, 120 ml of media from 6×15 cm dishes was pooled from each condition (Luc, WT, EQ) and processed to produce three separate inputs for the TAILS experiment. Luc, WT and EQ inputs from the SMC1 experiment were each divided into triplicate 400 ug samples to generate technical replicate TAILS data. For the second experiment, referred to as SMC2, media was processed separately in triplicate for each condition (Luc1, Luc2, Luc3, WT1, WT2, WT3, EQ1, EQ2, EQ3) using 60 ml of media from 3×15 cm dishes for each process replicate. Inputs from the SMC2 experiment used process replicates of 300 ug each to generate TAILS data. The third experiment used input from cultured Human umbilical vein endothelial cells (HUVEC) from Lifeline Cell Technology grown in VascuLife Media and transduced in Lifeline Basal EC (+bFGF2 10 ng/ml). The HUVEC experiment used the same strategy as the SMC2 experiment, with 40 ml of media from 2×15 cm dishes for each process replicate and used 200 ug each to generate TAILS data. Inputs for process replicate experiments were restricted to the lowest concentration from the 9 parallel samples for SMC2 or HUVEC.
# TMT10 isotopic labeling and negative selection of non-labeled peptides-Sample preparation was performed based on the TAILS protocol from the Overall lab with some modifications. From a single experiment, nine parallel protein samples in 50 mM HEPES pH 8.0, 150 mM NaCl were separately denatured with guanidinium chloride (Sigma, G4505) to reach a final concentration of 2.5M guanidinium chloride and 250 mM HEPES and incubated at 65° C. for 15 min. Reduction was achieved through addition of tris(2-carboxylethyl) phosphine (TCEP) at a final concentration of […] and incubated at 65° C. for 45 min. Alkylation reaction was performed with addition of iodoacetamide (IAA, Sigma, A3221) to a final concentration of 10 mM IAA for 15 min at room temperature in the dark. Following denaturation, reduction and alkylation steps, ten percent of each of the nine parallel protein samples was removed and combined to serve as a pooled reference. Isobaric tags were added to free amine groups using the TMT10plex Isobaric Mass Tagging Kit (ThermoFisher, 90113) with TMT channels randomly assigned to the nine samples and TMT 131 assigned to the pooled reference. […]
row,Substance,logFC.mWT.over.mEQ
1,ACTB_21 (FAGDDAPR; listed as Homo sapiens),1.17
2,ACTB_105 (LTEAPLNPKANR; listed as Homo sapiens),2.00
3,ADAM9_69 (VIQAEGKEHIIHLER; listed as Homo sapiens),1.55
4,AEBP1_37 (FLEGFLSELEPEPR; listed as Homo sapiens),3.41
5,APLP2_579 (ISETPVDVR; listed as Homo sapiens),2.00
6,CCDC80_66 (LEEPNLQPLQR; listed as Homo sapiens),3.70
7,ECM1_134 (FGDQSHPEPESWNAAQHCQQDR; listed as Homo sapiens),2.74
8,EFEMP1_124 (AVAGPEMQTGR; listed as Homo sapiens),4.43
9,EFEMP1_125 (VAGPEMQTGR; listed as Homo sapiens),2.25
10,EFHD2_67 (QGIGEPQSPSR; listed as Homo sapiens),0.90
11,EHBP1L1_298 (TAPTPAPR; listed as Homo sapiens),1.23
12,FBLN2_259 (ALGPPAPVQAKAR; listed as Homo sapiens),1.29
13,FBLN2_260 (LGPPAPVQAKAR; listed as Homo sapiens),4.21
14,FBN1_29 (LEAGNVKETR; listed as Homo sapiens),4.49
15,FBN1_53 (LKGPNVCGSR; listed as Homo sapiens),4.93
16,FLNA_612 (SVEGPSQAKIECDDKGDGSCDVR; listed as Homo sapiens),1.69
17,FLNA_695 (FTVDAKHGGKAPLR; listed as Homo sapiens),5.04
18,FLNA_1285 (LTQTGGPHVKAR; listed as Homo sapiens),5.06
19,FN1_36 (MVQPQSPVAVSQSKPGCYDNGKHYQINQQWER; listed as Homo sapiens),3.34
20,FN1_40 (QSPVAVSQSKPGCYDNGKHYQINQQWER; listed as Homo sapiens),4.27
21,FN1_45 (VSQSKPGCYDNGKHYQINQQWER; listed as Homo sapiens),3.20
22,FN1_47 ([code q]SKPGCYD[code n]GKHYQINQQWER; not fully specified; listed as Homo sapiens),2.89
23,FN1_281 (SGSGPFTDVR; listed as Homo sapiens),1.88
24,FN1_282 (GSGPFTDVR; listed as Homo sapiens),3.89

row,Substance,logFC.mWT.over.mEQ
1,FN1_886 (NQESTPVVIQQETTGTPR; listed as Homo sapiens),1.21
2,FN1_1143 (LTPGVEYVYTIQVLR; listed as Homo sapiens),0.86
3,FN1_1656 (SSSPVTGYR; listed as Homo sapiens),1.52
4,FN1_1731 (FTDVDVDSIKIAWESPQGQVSR; listed as Homo sapiens),2.70
5,FN1_2143 (FEEHGFR; listed as Homo sapiens),1.24
6,FN1_2217 (FQDTSEYIISCHPVGTDEEPLQFR; listed as Homo sapiens),2.27
7,GALNT2_31 (LAGGAGGGAGR; listed as Homo sapiens),1.19
8,GSN_35 (SQAGAPQGR; listed as Homo sapiens),4.37
9,GSN_413 (HIANVER; listed as Homo sapiens),2.19
10,HEG1_49 (GAGLELQLER; listed as Homo sapiens),1.20
11,HLA−C_52 (VDDTQFVR; listed as Homo sapiens),0.78
12,HSPG2_275 (LLPGSVR; listed as Homo sapiens),2.49
13,HSPG2_1937 (SSAGQQVAR; listed as Homo sapiens),0.94
14,HSPG2_2331 (ANLAYPAGSTQPIR; listed as Homo sapiens),2.04
15,HSPG2_2333 (LAYPAGSTQPIR; listed as Homo sapiens),1.92
16,HSPG2_2688 (VADSGEYVCR; listed as Homo sapiens),3.02
17,HSPG2_3250 (SPLPWQHR; listed as Homo sapiens),1.01
18,HSPG2_3542 (IAHVELADAGQYR; listed as Homo sapiens),0.67
19,HSPG2_3647 ([pGlu]GKVKAFAHLQVPER; listed as Homo sapiens),1.22
20,HSPG2_3672 (SFLPLPTIKDAYR; listed as Homo sapiens),1.03
21,HSPG2_3813 (SSGFIGCVR; listed as Homo sapiens),1.09
22,HSPG2_4004 (SAEPLALGR; listed as Homo sapiens),1.25
23,HSPG2_4021 (LNKDGSLR; listed as Homo sapiens),0.73
24,HSPG2_4075 (GCVGEVSVNGKR; listed as Homo sapiens),0.75

row,Substance,logFC.mWT.over.mEQ
1,HSPG2_4133 (DGFKGDLCEHEENPCQLR; listed as Homo sapiens),0.76
2,HTRA1_33 (LAAGCPDR; listed as Homo sapiens),2.78
3,IFI30_43 (YKTGNLYLR; listed as Homo sapiens),3.19
4,IGFBP3_31 (SAGLGPVVR; listed as Homo sapiens),2.49
5,IGFBP3_32 (AGLGPVVR; listed as Homo sapiens),3.78
6,IGFBP3_200 (FSSESKR; listed as Homo sapiens),2.41
7,IGFBP7_101 (AAGGPGVSGVCVCKSR; listed as Homo sapiens),3.69
8,LASP1_123 (HEEFEKSR; listed as Homo sapiens),1.40
9,LGALS1_53 (HGDANTIVCNSKDGGAWGTEQR; listed as Homo sapiens),3.89
10,LGALS3BP_447 (FQAPSDYR; listed as Homo sapiens),4.13
11,LOXL1_219 (VASAGVIYPYQPR; listed as Homo sapiens),1.09
12,LOXL2_37 (FQQPAPEYHQPQAPANVAKIQLR; listed as Homo sapiens),3.28
13,LOXL2_38 ([code q]QPAPEYHQPQAPANVAKIQLR; not fully specified; listed as Homo sapiens),1.26
14,LOXL2_318 (AYKPEQPLVR; listed as Homo sapiens),0.78
15,LOX_58 (LSLGSQYQPQR; listed as Homo sapiens),0.99
16,LOX_80 (ANASAQQPR; listed as Homo sapiens),2.18
17,LOX_81 (NASAQQPR; listed as Homo sapiens),1.69
18,LOX_123 (HWFQAGYSTSR; listed as Homo sapiens),1.82
19,LOX_124 (WFQAGYSTSR; listed as Homo sapiens),3.62
20,LOX_126 (QAGYSTSR; listed as Homo sapiens),1.59
21,LTBP1_393 (LTATNFR; listed as Homo sapiens),3.89
22,LTBP1_494 (SVQIHQVSR; listed as Homo sapiens),2.63
23,LTBP1_540 (HQQVIPHVYPVAAKTQLGR; listed as Homo sapiens),2.70
